Literature values as cited in paper PMC6563033, “Purification and Characterization of Antioxidant Peptides Derived from Protein Hydrolysate of the Marine Bivalve Mollusk Tergillarca granosa” (Marine Drugs, 2019).
Where two headings read alike, the source gives them in different places.

What was measured:
[1] = cited from earlier work; for EC50 (half elimination ratio) on ABTS cation radical: APs from blue-spotted stingray
Source text: Bioactive peptides (BPs), which in general range from 2 to 20 amino acids in size, are fragments of proteins and become active when released during enzymatic hydrolysis, gastrointestinal transit, and fermentation. […] Furthermore, EC50 values of TGP3 and TGP4 were lower than those of APs from protein hydrolysates of skip ...

[2] = cited from earlier work; for Change of activity during heat treatment: heat 25–100 °C; for Change of activity during pH treatment: pH 3–11
Source text: Heat treatment is a common method of food processing and APs are helpful to lengthen the food shelf-life if they can keep their activity after heating. Peptides with large-scale pH stability can be incorporated into diverse liquid products and keep their bioactivity. Therefore, thermal and pH stability of peptides are important indexes for their application in functional products, and characterization of those properties can help to design their potential processing parameters. ATSHH from protein hydrolysate of sandfish (Arctoscopus japonicus) partially lost its DPPH radical scaven ...

[3] = cited from earlier work
Source text: EC50 values of TGP3 and TGP4 were lower than those of APs from protein ...

[4] = cited from earlier work; remark: listed apart in the source
Method: Defatted muscle of blood cockle was hydrolyzed under a two-enzyme system (Alcalase treatment for 1.5 h following Neutrase treatment for 1.5 h), and the degree of hydrolysis (DH) and yield of the resulted hydrolysate (referred to as TGH) were 19.32 ± 1.37% and 9.62 ± 0.86% (on the basis of defatted muscle), respectively. […] In addition, the EC50 values of TGP3 and TGP4 were lower than those o ...

[5] = cited from earlier work; remark: listed apart in the source
[6] = APs from spotless smoothhound (Mustelus griseus) muscle
[7] = APs from miiuy croaker swim bladder
[8] = APs from croceine croaker scale

Substance: MYPGLA [literature peptide from blue-spotted stingray]
- EC50 (half elimination ratio) on ABTS cation radical [1]: 12880 µg/mL
- Change of activity during heat treatment [2]: no significant (p > 0.05) differences
- Change of activity during pH treatment [2]: no significant (p > 0.05) differences

Substance: KFPE [literature AP from spotless smoothhound muscle]
- EC50 on hydroxyl radical [3, 6]: 151 µg/mL

Substance: GIEWA [literature AP from miiuy croaker swim bladder]
- EC50 on DPPH radical ([4]; AP from miiuy croaker swim bladder): 780 µg/mL
- EC50 on hydroxyl radical [3, 7]: 710 µg/mL
- EC50 on superoxide anion radical [5, 7]: 300 µg/mL

Substance: GADIVA [literature AP from skipjack tuna bone]
- EC50 on DPPH radical ([4]; APs from skipjack tuna bone): 570 µg/mL
- EC50 on hydroxyl radical ([3]; APs from skipjack tuna bone): 250 µg/mL

Substance: NFWWP [literature AP from miiuy croaker muscle]
- EC50 on superoxide anion radical ([5]; APs from miiuy croaker muscle): 840 µg/mL

Substance: FPYLRH [literature AP from miiuy croaker swim bladder]
- EC50 on hydroxyl radical [3, 7]: 680 µg/mL
- EC50 on superoxide anion radical [5, 7]: 340 µg/mL

Substance: LMGQW [literature AP from monkfish muscle]
- EC50 on hydroxyl radical ([3]; APs from monkfish muscle): 40 µg/mL
- EC50 on superoxide anion radical ([5]; APs from monkfish muscle): 42 µg/mL

Substance: HFGBPFH [literature AP from grass carp skin]
- EC50 on DPPH radical ([4]; AP from grass carp skin): 200 µg/mL

Substance: NWDMEKIWD [literature AP from skate muscle]
- EC50 on DPPH radical ([4]; AP from skate muscle): 289 µg/mL

Substance: FSGLR [literature AP from miiuy croaker swim bladder]
- EC50 on superoxide anion radical [5, 7]: 3350 µg/mL

Substance: GPAGPAG [literature AP from croceine croaker scale]
- EC50 on hydroxyl radical [3, 8]: 240 µg/mL
- EC50 on superoxide anion radical [5, 8]: 99 µg/mL

Substance: LGLNGDDVN [literature AP from conger eel]
- EC50 on hydroxyl radical ([3]; AP from conger eel): 687 µg/mL

Substance: AGPM [literature AP from skipjack tuna bone]
- EC50 on superoxide anion radical ([5]; APs from skipjack tuna bone): 1680 µg/mL
- EC50 on ABTS cation radical ([1]; APs from skipjack tuna bone): 1480 µg/mL

Substance: GPDGR [literature AP from skipjack tuna bone]
- EC50 on superoxide anion radical ([5]; APs from skipjack tuna bone): 1440 µg/mL
- EC50 on ABTS cation radical ([1]; APs from skipjack tuna bone): 1070 µg/mL

Substance: PSYV [literature AP from weatherfish loach]
- EC50 on hydroxyl radical ([3]; AP from weatherfish loach): 2640 µg/mL

Substance: YFLWP [literature AP from miiuy croaker muscle]
- EC50 on superoxide anion radical ([5]; APs from miiuy croaker muscle): 3080 µg/mL

Substance: FTGMD [literature AP from miiuy croaker swim bladder]
- EC50 on superoxide anion radical [5, 7]: 3040 µg/mL

Substance: FMPLH [literature AP from miiuy croaker muscle]
- EC50 on DPPH radical ([4]; APs from miiuy croaker muscle): 480 µg/mL
- EC50 on hydroxyl radical ([3]; APs from miiuy croaker muscle): 800 µg/mL
- EC50 on superoxide anion radical ([5]; APs from miiuy croaker muscle): 150 µg/mL

Substance: GFRGTIGLVG [literature AP from croceine croaker scale]
- EC50 on hydroxyl radical [3, 8]: 293 µg/mL

Substance: GFEPY [literature AP from miiuy croaker swim bladder]
- EC50 on superoxide anion radical [5, 7]: 870 µg/mL

Substance: NADFGLNGLEGLA [literature AP from giant squid]
- EC50 on hydroxyl radical ([3]; AP from giant squid): 612 µg/mL

Substance: GAEGFIF [literature AP from skipjack tuna bone]
- EC50 on DPPH radical ([4]; APs from skipjack tuna bone): 300 µg/mL
- EC50 on hydroxyl radical ([3]; APs from skipjack tuna bone): 320 µg/mL

Substance: GIISH [literature AP from spotless smoothhound muscle]
- EC50 on hydroxyl radical [3, 6]: 76.9 µg/mL

Substance: FWKVV [literature AP from miiuy croaker muscle]
- EC50 on DPPH radical ([4]; APs from miiuy croaker muscle): 850 µg/mL
- EC50 on hydroxyl radical ([3]; APs from miiuy croaker muscle): 970 µg/mL
- EC50 on superoxide anion radical ([5]; APs from miiuy croaker muscle): 290 µg/mL

Substance: FIGP [literature AP from bluefin leatherjacket skin]
- EC50 on DPPH radical ([4]; AP from bluefin leatherjacket skin): 118 µg/mL

Substance: GFPSG [literature AP from croceine croaker scale]
- EC50 on hydroxyl radical [3, 8]: 107 µg/mL
- EC50 on superoxide anion radical [5, 8]: 151 µg/mL

Substance: FIMGPY [literature AP from skate cartilage]
- EC50 on ABTS cation radical ([1]; APs from skate cartilage): 1040 µg/mL

Substance: GFVG [literature AP from spotless smoothhound muscle]
- EC50 on ABTS cation radical ([1]; APs from spotless smoothhound muscle, no reference given): 1305.5 µg/mL

Substance: YPPAK [literature AP from blue mussel]
- EC50 on DPPH radical ([4]; AP from blue mussel): 2620 µg/mL

Substance: VGGRP [literature AP from grass carp skin]
- EC50 on hydroxyl radical ([3]; APs from grass carp skin): 2055 µg/mL

Substance: PYSFK [literature AP from grass carp skin]
- EC50 on hydroxyl radical ([3]; APs from grass carp skin): 2283 µg/mL

Substance: IVAGPQ [literature AP from skate cartilage]
- EC50 on ABTS cation radical ([1]; APs from skate cartilage): 1290 µg/mL

Substance: ATSHH [literature peptide from protein hydrolysate of sandfish (Arctoscopus japonicus)]
- Retention of activity after pH treatment ([2]; basic (pH 10–12) and acidic (pH 2) conditions): moderate losses of activity
- Retention of DPPH radical scavenging activity after heating ([2]; incubated at 50–90 °C): partially lost its DPPH radical scavenging activity

Substance: FLNEFLHV [literature AP from salmon]
- EC50 on ABTS cation radical ([1]; AP from salmon): 1548 µg/mL

Substance: ELLI [literature AP from spotless smoothhound muscle]
- EC50 on hydroxyl radical [3, 6]: 117.3 µg/mL

Substance: EWPAQ [literature AP from monkfish muscle]
- EC50 on hydroxyl radical ([3]; APs from monkfish muscle): 269 µg/mL

Substance: WAFAPA [literature peptide from blue-spotted stingray]
- EC50 (half elimination ratio) on ABTS cation radical [1]: 8330 µg/mL
- Change of activity during heat treatment [2]: no significant (p > 0.05) differences
- Change of activity during pH treatment [2]: no significant (p > 0.05) differences

Substance: FLHRP [literature AP from monkfish muscle]
- EC50 on hydroxyl radical ([3]; APs from monkfish muscle): 114 µg/mL
- EC50 on superoxide anion radical ([5]; APs from monkfish muscle): 101 µg/mL
